Assay results as given in patent US10173999B2, “Cyclic amine derivative and pharmaceutical use thereof” (Toray Industries, Inc., priority 2015, dated 2019).
Where a name gives a salt, the structure may show the parent alone.

Test: Stability test in monkey liver microsomes
Type: in vitro ADME
Conditions: pH 7.4; monkey liver microsomes 0.5 mg/mL, test compound 2 μmol/L, 37° C., 0-30 min; read-out: Hepatic intrinsic clearance, Monkey
Method: Experiment was performed using the compound of Example 11, Comparative Example 1 or Comparative Example 6 as a test compound and human liver microsomes (from Xenotech), monkey liver microsomes (from Xenotech), dog liver microsomes (from Xenotech) or mouse liver microsomes (from Xenotech) as the liver microsomes.
The reagents to be used in the stability test in liver microsomes were prepared as follows. A D-glucose 6-phosphate disodium salt (hereinafter referred to as G6P) was dissolved with distilled water to prepare an aqueous solution of G6P (100 mmol/L). Glucose 6-phosphate dehydrogenase (1000 units) from Yeast (hereinafter referred to as G6PDH) was dissolved with distilled water (5 mL) to prepare an aqueous solution of G6PDH (200 units/mL). MgCl2 was dissolved with distilled water to prepare an aqueous solution of MgCl2 (100 mmol/L). […]
With respect to the chromatogram of each well obtained by LC/MS analysis or LC/MS/MS analysis, the test compound residual ratio (%) at each reaction time t (min) was calculated based on the peak area at the reaction time of 0 minute as 100%. […]

Structure (SMILES)	microsomal CLint at 2 μmol/L [µL/min/mg]
CC(C)n1ccnc1CCC(=O)N1CCC(N(C)C)CC1 [Comparative Example 6, 1-(4-(dimethylamino)piperidin-1-yl)-3-(1-isopropyl-1H-imidazol-2-yl)propan-1-one hydrochloride]	6
CN(C)C1CCN(C(=O)CCc2nccn2C)CC1 [Comparative Example 1, 1-(4-(dimethylamino)piperidin-1-yl)-3-(1-methyl-1H-imidazol-2-yl)propan-1-one hydrochloride]	2
